For 12 molecules, IC50 and EC50 results are on record in patent publication US10059668B2 (Mirati Therapeutics, Inc., priority 2015, dated 2018).

A word on the IC50: it is the point on the concentration scale where inhibition reaches its midpoint. One may read the EC50 as the concentration needed to bring the measured effect to its halfway point. A higher EC50 goes with weaker potency.

The target in assay [1] is purified N-terminal truncated human LSD1 enzyme (aa 151-852) (Homo sapiens (Human), UniProt O60341). As to the kind of experiment: LSD1 fluorescence coupling enzymatic assay (horseradish peroxidase/Amplex Red). In kind it is biochemical. The settings on record: 50 nM LSD1, 30 min pre-incubation, 10 μM histone 3.3 peptide (aa 1-21), 10-point dose-response; read-out: IC50 (nM), Inhibition of LSD1 Activity.
Method: Briefly, compounds of the present invention were solubilized in DMSO and a series of 10, three-fold serial dilutions were made for each compound in 15% DMSO. The initial starting concentration for the serial dilutions of each compound was 10 μM.
An aliquot of each serial dilution of test compound was added to a 96 well plate containing 50 nM purified N-truncated LSD1 enzyme (RBC Cat# PDM-11-350), 50 mM Tris-HCl, pH 7.5, 0.05% CHAPS and 1% DMSO in a 10 microliter reaction volume. The plate was pre-incubated at room temperature for 30 min to which 10 μM of histone 3.3 peptide (aa 1-21) was added to initiate the enzymatic reaction. The reaction mixture was incubated at room temperature for one hour. […] The IC50 value for each compound was determined from each 10-point dose-response curve using GraphPad Prism 4 software with a sigmodial dose response.

Another assay has as its system MV4-11 cells. As to the kind of experiment: Inhibition of LSD1-mediated cellular proliferation, CellTiter Glo luminescence assay. In kind it is cell-based, human. The settings on record: Day 7, cell viability by CellTiter Glo. Background: Cellular ATP, detected with luciferase, serves as a proxy for viable cell number.

Method for MV4-11 cells: The MV4-11 cell line cell line was established from the blast cells of a person with biphenotypic B-myelomonocytic leukemia.
Inhibition of LSD1-mediated cellular proliferation by compounds of Formula (I) was measured in a CellTiter Glo luminescence assay (Promega Corp), which determines the number of viable cells by quantitating the amount of ATP, using a BMG LabTech CLARIOStar instrument in accordance with the manufacturer's instructions. Briefly, MV4-11 cells were plated at a density of 1000 cells/90 μl/well in 96 well culture plates and cultured in IMDM medium (Gibco) supplemented with 10% fetal bovine serum (FBS) and 1% penicillin and 1% streptomycin at 37° C. […] Control samples lacking test compound or cells were processed in parallel. The plates were incubated at 37° C. for four days and thereafter 50 μl fresh medium containing the same concentration of test compound was added. The plates were incubated for an additional three days (Day 7). A baseline measurement, as described below, was taken for a time zero point at Day 0.
At Day 7, the supernatant was removed by aspiration and the plate was allowed to equilibrate to room temperature (˜15 min). The cells were lysed using 45 μl (30 μl for Day 0) of Cell Titer Glo reagent (Promega Corp). The plates were shaken for two minutes and incubated at room temperature for 30 minutes. The degree of inhibition of cell viability was determined using a spectrophotometric readout by measuring the luminescence at 340 nm and the EC50 concentration for each compound was calculated using Graph Pad Prism 4 software.

`CS(=O)(=O)NC(=O)/C=C/c1ccc(CN2CCC(N[C@@H]3C[C@H]3c3ccccc3)CC2)cc1` (relative stereo) [Example 2, (E)-N-(Methylsulfonyl)-3-(4-((4-(((trans)-2-phenylcyclopropyl)amino)piperidin-1-yl)methyl)phenyl)acrylamide]: in assay [1], the 50% inhibitory concentration (IC50) was 30 nM. Same read-out and setting: to `CS(=O)(=O)NC(=O)/C=C/c1ccc(CN2CCC(N[C@@H]3C[C@H]3c3ccccc3)CC2)cc1` [Example 15, (E)-N-(Methylsulfonyl)-3-(4-((4-(((1R,2S)-2-phenylcyclopropyl)amino)piperidin-1-yl)methyl)phenyl)acrylamide] belongs 10 nM.

In the case of `C(=C\c1nnn[nH]1)/c1cccc(CN2CCC(N[C@@H]3C[C@H]3c3ccccc3)CC2)c1` (relative stereo) [Example 14], in assay [1], the IC50 stood at 118 nM. Besides, the concentration giving a half-maximal response (EC50) in the assay with MV4-11 cells is 174 nM. `C(=C\c1cccc(CN2CCC(N[C@@H]3C[C@H]3c3ccccc3)CC2)c1)/c1ccccc1` (relative stereo) [Example 13, N-(trans-2-phenylcyclopropyl)-1-(3-((E)-styryl)benzyl)piperidin-4-amine]: the 50% inhibitory concentration (IC50) in assay [1] stood at 17 nM. In addition, a half-maximal effect in the assay with MV4-11 cells (Homo sapiens, 168 h) (EC50) was put at 37 nM. Regarding `CS(=O)(=O)NC(=O)/C=C/c1ccc(CN2CCC(CN[C@@H]3C[C@H]3c3ccccc3)CC2)cc1` [Example 49, (E)-N-(methylsulfonyl)-3-(4-((4-((((1R,2S)-2-phenylcyclopropyl)amino)methyl)piperidin-1-yl)methyl)phenyl)acrylamide], the EC50 in the assay with MV4-11 cells (Homo sapiens, 168 h) is 26 nM.

For the molecule `CS(=O)(=O)NC(=O)c1ccc(CN2CCC(CN[C@@H]3C[C@H]3c3ccccc3)CC2)cc1` [Example 53, N-(Methylsulfonyl)-4-((4-((((1R,2S)-2-phenylcyclopropyl)amino)methyl)piperidin-1-yl)methyl)benzamide], the half-inhibitory concentration (IC50) in assay [1] stood at 27 nM. The EC50 with MV4-11 cells (Homo sapiens, 168 h) was 19 nM.

For the molecule `CS(=O)(=O)NC(=O)c1ccc(CN2CCC(N[C@@H]3C[C@H]3c3ccccc3)CC2)cc1` [Example 34, N-(Methylsulfonyl)-4-((4-(((1R,2S)-2-phenylcyclopropyl)amino)piperidin-1-yl)methyl)benzamide], the concentration for half-maximal inhibition (IC50) in assay [1] turned out to be 3 nM. In the assay with MV4-11 cells (Homo sapiens, 168 h), this molecule registered an EC50 of 60 nM.

With `CS(=O)(=O)NC(=O)Cc1ccc(CN2CCC(CN[C@@H]3C[C@H]3c3ccccc3)CC2)cc1` [Example 57], the IC50 in assay [1] was found to be 44 nM. Moreover, the EC50 with MV4-11 cells (Homo sapiens, 168 h) came to 1 nM. Turning to `O=C(/C=C/c1ccc(CN2CCC(CN[C@@H]3C[C@H]3c3ccccc3)CC2)cc1)NS(=O)(=O)c1ccccc1` [Example 48, (E)-3-(4-((4-((((1R,2S)-2-Phenylcyclopropyl)amino)methyl)piperidin-1-yl)methyl)phenyl)-N-(phenylsulfonyl)acrylamide], in assay [1], the IC50 was determined as 33 nM. In the assay with MV4-11 cells (Homo sapiens, 168 h), the midpoint of the response, the EC50, lay at 9 nM. Regarding `C(=C\c1ccc(CN2CCC(N[C@@H]3C[C@H]3c3ccccc3)CC2)cc1)/c1ccccc1` (relative stereo) [Example 12], in assay [1], the IC50 was found to be 23 nM. This molecule also gave a 50% effective concentration (EC50) in the assay on MV4-11 cells of 32 nM. On to `CONC(=O)/C=C/c1ccc(CN2CCC(N[C@@H]3C[C@H]3c3ccccc3)CC2)cc1` (relative stereo) [Example 1, (E)-N-Methoxy-3-(4-((4-(((trans)-2-phenylcyclopropyl)amino)piperidin-1-yl)methyl)phenyl)acrylamide], for which the half-maximal inhibitory concentration (IC50) in assay [1] is 15 nM. Consider `CS(=O)(=O)NC(=O)Cc1ccc(CN2CCC(N[C@@H]3C[C@H]3c3ccccc3)CC2)cc1` [Example 35, N-(Methylsulfonyl)-2-(4-((4-(((1R,2S)-2-phenylcyclopropyl)amino)piperidin-1-yl)methyl)phenyl)acetamide], for which, in assay [1], the half-maximal inhibitory concentration (IC50) stood at 25 nM. The molecule further displayed an EC50 with MV4-11 cells (Homo sapiens, 168 h) of 30 nM.
